In patent US8481532B2, “PDE-10 inhibitors” (EnVivo Pharmaceuticals, Inc., priority 2008, dated 2013):
Where two headings read alike, the source gives them in different places.

Key:
[1] = target: Human PDE10A1 (Homo sapiens, UniProt Q9Y233); test: hPDE10A1 Enzyme Inhibition ([3H]-cAMP scintillation assay); type: biochemical
Protocol: • hPDE10A1 Enzyme Activity: […] samples of serially diluted Human PDE10A1 enzyme were incubated with 50 μl of [^3H]-cAMP for 20 minutes (at 37° C.). Reactions were carried out in Greiner 96 deep well 1 ml master-block. The enzyme was diluted in 20 mM Tris HCl pH7.4 and [^3H]-cAMP was diluted in 10 mM MgCl2, 40 mM Tris.HCl pH 7.4. The reaction was terminated by denaturing the PDE enzyme (at 70° C.) after which [^3H]-5′-AMP was converted to [^3H]-adenosine by adding 25 μl snake venom nucleotidase and incubating for 10 minutes (at 37° C.). Adenosine, being neutral, was separated from charged cAMP or AMP by the addition of 200 μl Dowex resin. Samples were shaken for 20 minutes then centrifuged for 3 minutes at 2,500 r.p.m. 50 μl of supernatant was removed and added to 200 μl of MicroScint-20 in white plates (Greiner 96-well Optiplate) and shaken for 30 minutes before reading on Perkin Elmer TopCount Scintillation Counter. • hPDE10A1 Enzyme Inhibition: To check inhibition profile 11 μl of serially diluted inhibitor was added to 50 μl of [^3H]-cAMP and 50 μl of diluted Human PDE10A1 and assay was carried out as in the enzyme activity assay. Data was analysed using Prism software (GraphPad Inc).

[2] = tested on: rats; conditions: cited from earlier work
[3] = Human PDE10A1, [3H]-cAMP substrate, 20 minutes at 37° C., read-out: hPDE10A1 IC50 Band

Human PDE10A1, sequence (Q9Y233 1-779 isoform Q9Y233-1): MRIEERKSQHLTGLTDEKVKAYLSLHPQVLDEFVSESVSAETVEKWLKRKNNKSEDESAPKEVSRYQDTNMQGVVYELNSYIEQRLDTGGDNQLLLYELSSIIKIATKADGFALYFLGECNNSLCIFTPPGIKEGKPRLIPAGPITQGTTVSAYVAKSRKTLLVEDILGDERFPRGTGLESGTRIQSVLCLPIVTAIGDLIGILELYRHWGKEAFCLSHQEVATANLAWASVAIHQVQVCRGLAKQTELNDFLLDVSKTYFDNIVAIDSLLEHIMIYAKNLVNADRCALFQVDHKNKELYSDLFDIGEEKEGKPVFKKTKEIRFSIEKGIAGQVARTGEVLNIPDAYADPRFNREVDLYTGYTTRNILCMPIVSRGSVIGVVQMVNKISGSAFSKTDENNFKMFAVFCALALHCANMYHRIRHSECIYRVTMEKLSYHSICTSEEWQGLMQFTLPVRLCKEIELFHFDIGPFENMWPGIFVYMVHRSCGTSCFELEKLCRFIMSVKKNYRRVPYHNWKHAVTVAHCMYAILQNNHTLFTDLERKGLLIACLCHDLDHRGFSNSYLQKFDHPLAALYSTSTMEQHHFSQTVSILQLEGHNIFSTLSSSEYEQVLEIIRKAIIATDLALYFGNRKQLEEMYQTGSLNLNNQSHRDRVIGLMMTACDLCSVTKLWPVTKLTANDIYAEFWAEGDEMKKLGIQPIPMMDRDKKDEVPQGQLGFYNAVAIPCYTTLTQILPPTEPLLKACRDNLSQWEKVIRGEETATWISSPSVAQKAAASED

## CC(C)(C)c1ccc(C2CC2C(=O)N/N=C/c2cccc3cnccc23)cc1 (stereo not shown) [Example 122, (E)-2-(4-tert-butylphenyl)-N′-(isoquinolin-5-ylmethylene) cyclopropanecarbohydrazide]
[1]
  IC50: < 200 nM

## O=C(N/N=C/c1cccc2cnccc12)C1CC1c1ccc(-c2ccccc2)cc1 (stereo not shown) [Example 196, (E)-2-(biphenyl-4-yl)-N′-(isoquinolin-5-ylmethylene)cyclopropanecarbohydrazide]
[1]; [3]
  IC50: < 200 nM

## C/C(=N\NC(=O)C1CC1c1ccc(C(C)(C)C)cc1)c1cccc2cnccc12 (stereo not shown) [Example 197, (E)-2-(4-tert-butylphenyl)-N′-(1-(isoquinolin-5-yl)ethylidene)cyclopropanecarbohydrazide]
[1]; [3]
  IC50: < 1000 nM

## CN(/N=C/c1cccc2cnccc12)C(=O)C1CC1c1ccc(C(C)(C)C)cc1 (stereo not shown) [Example 198, (E)-2-(4-tert-butylphenyl)-N′-(isoquinolin-5-ylmethylene)-N-methylcyclopropanecarbohydrazide]
[1]; [3]
  IC50: < 200 nM

## COc1ccc(Cc2nccc3cc(OC)c(OC)cc23)cc1OC [papaverine]
[2]
  apomorphine induced stereotypies: reduces
  haloperidol induced catalepsy: increases
  rat brain dopamine levels: reduces
